Experiments:
[1] = Pharmacokinetics of Bicycle multimers in CD-1 mice; conditions: 5 mg/kg IV, male CD-1 mice; FIGS. 5A and 5B
Protocol: Male CD-1 mice were dosed with 5 mg/kg of each Bicycle multimer formulated in 25 mM Histidine HCl, 10% sucrose pH 7 via tail vein injection. Serial bleeding (about 80 μL blood/time point) was performed via submandibular or saphenous vein at each time point. All blood samples were immediately transferred into prechilled microcentrifuge tubes containing 2 μL K2-EDTA (0.5M) as anti-coagulant and placed on wet ice. Blood samples were immediately processed for plasma by centrifugation at approximately 4° C., 3000 g. The precipitant including internal standard was immediately added into the plasma, mixed well and centrifuged at 12,000 rpm, 4° C. for 10 minutes. The supernatant was transferred into pre-labeled polypropylene microcentrifuge tubes, and then quick-frozen over dry ice. The samples were stored at 70° C. or below as needed until analysis. 7.5 μL of the supernatant samples were directly injected for LC-MS/MS analysis using an Orbitrap Q Exactive in positive ion mode to determine the concentrations of Bicycle multimer. Plasma concentration versus time data were analyzed by non-compartmental approaches using the Phoenix WinNonlin 6.3 software program. C0, Cl, Vdss, T1/2, AUC(0-last), AUC(0-inf), MRT(0-last), MRT(0-inf) and graphs of plasma concentration versus time profile were reported.

CD137 [2] = biological target: T1, CD137 (Homo sapiens, UniProt Q07011); test: CD137 reporter cell activity washout assay; type: cell-based; design: host or cells: Jurkat cells; conditions: 10 nM, exposure 30, 60 or 120 minutes, total 6 hours; FIG. 13
Protocol: Jurkat cells engineered to overexpress CD137 and express a luciferase gene under the NF-κB promoter were purchased from Promega. The reporter cells were incubated with 10 nM of CD137 agonists for the indicated times at 37° C. in RPMI1640 media with 1% FBS. After either 30, 60, or 120 minutes, cells were washed in an excess of culture media and resuspended in 75 μL of fresh media. A no washout condition was also included. All washout conditions were performed in duplicate. Cells then continued to incubate for a total of 6 hours (an additional 5.5, 5, or 4 hours respective to exposure times). After incubation, 75 μL of Bio-Glo reagent (Promega) was added to each well and allowed to equilibrate for 10 minutes at room temperature. Luminescence was read on the Clariostar plate reader (BMG LabTech). Fold induction was calculated by dividing the luminescence signal by background wells (reporter cells with no agonist added). The percent of the maximum fold induction was calculated by dividing the fold induction of the washout time by the fold induction of the no washout condition and multiplying by 100.

[3] = tested on: Pan T-cells (isolated from human PBMCs); test: T-cell cytokine release assay; type: cell-based; conditions: anti-CD3 stimulated T cells, 48 hours; FIG. 14
Protocol: Healthy human buffy coat was purchased from the Sylvan N. Goldman Oklahoma Blood Institute and shipped fresh. Peripheral blood mononuclear cells (PBMCs) were isolated by Ficoll density gradient centrifugation. Red blood cells were lysed with ACK (Ammonium-Chloride-Potassium) lysis buffer. Pan T-cells were then isolated from total PBMCs using negative magnetic bead selection (Miltenyi MACS human Pan-T cell isolation kit). Pan T-cells were then plated on anti-CD3 coated 96-well plates (0.5 μg/mL) in culture media (RPMI1640 with 10% FBS) plus or minus compounds. Supernatant from cultures was collected after 24 and 48 hours. Cytokine [i.e., interleukin-2 (IL-2), interferon gamma (IFNγ)] release in supernatant was measured by HTRF assay (CisBio) according to the kit's instructions. HTRF assay plates were read on a Clariostar plate reader (BMG Labtech) at 665 nm and 620 nm. Data was analyzed and extrapolated to a standard curve according to the HTRF kit instruction in Prism and Excel. Cytokine release fold change was calculated by dividing the pg/mL of cytokine detected by background cytokine released (CD3 stimulation alone). Data was graphed in Prism as the mean of replicates with standard deviation error bars.

[4] = tested on: melanoma patient tumour samples; test: Ex vivo human tumour cell kill assay (3D spheroid culture); conditions: 48 hours
Protocol: Two frozen, dissociated melanoma patient tumour samples were purchased from Folio Conversant. Cells were thawed quickly at 37° C. and pipetted into 10 mL of Wash Medium [DMEM/F12+1× Penicillin/Streptomycin+50 μg/mL Gentamycin+100 μg/mL G418+100 μg/mL Hygromycin+1× Insulin-Transferrin-Selenium (ITS)+10 mM HEPES] with 1 mg/mL DNaseI added fresh. Cell counts were performed using a haemocytometer and a 1:2 dilution with 0.04% Trypan blue. Cells were spun down and resuspended in Growth Medium [EmbryoMax DMEM+10% heat-inactivated FBS+1× Penicillin/Streptomycin+50 μg/mL Gentamycin+1× GlutaMAX+1 mM Sodium pyruvate+1×ITS+0.4% BSA+4.5 g/L glucose+2.3 g/L sodium bicarbonate+10 mM HEPES+10 ng/mL basic fibroblast growth factor (bFGF)+20 ng/mL epidermal growth factor (EGF)] at 5×10^5 cells/mL. Cells were magnetized as described in the N3D Biosciences manufacturer's protocol. Briefly, NanoShuttle (NS) is added at 1 μL to 1×10^4 cells and mixed in by pipetting. […] Flow cytometry panels used in this experiment analysed the number of lymphocytes and tumour cells present on Days 0 and 2. Tumour cell killing was determined by the decrease in the number of CD45 negative cells in the treated wells versus the untreated control (FIG. 12)—significance was calculated using a 2-way ANOVA.

MC38 syngeneic tumors = test: In vivo efficacy in MC38 syngeneic tumors in C57BL/6J B-h4-1BB humanized mice; conditions: 20 or 30 mg/kg i.v. QAD × 6; compared to CD137 monoclonal antibody agonist; FIG. 7
Protocol: The MC38 murine colon carcinoma cell line was purchased from Shunran Shanghai Biological Technology Co., Ltd. The cells will be maintained in vitro as monolayer culture in Dulbecco's Modified Eagle's medium (DMEM) supplemented with 10% heat inactivated fetal calf serum, 100 U/mL penicillin and 100 μg/mL streptomycin at 37° C. in an atmosphere of 5% CO2. The tumor cells will be routinely subcultured twice weekly by trypsin-EDTA treatment. Cells growing in an exponential growth phase will be harvested and counted for tumor inoculation. 6-8 week old female C57BL/6J B-h4-1BB humanized mice were subcutaneously injected (in the flank) with MC38 tumor cells (5×10^5) with 0.1 mL PBS for tumor development. Tumor-bearing animals were randomly enrolled into six study groups when the mean tumor size reached approximately 113 mm^3 (Study 1) or 107 mm^3 (Study 2). The test and positive control articles were administrated to the tumor-bearing mice according to predetermined regimens as shown below.
Test articles were formulated in aqueous vehicle (25 mM Histidine, 10% sucrose pH=7) and administered intravenously or intraperitoneally. CD137 monoclonal antibody agonist was administered by intraperitoneal injection in 0.9% saline.
Tumor volume was measured three times a week in two dimensions using a caliper, and the volume was expressed in mm3 using the formula: V=0.5a×b2 where a and b were the long and short diameters of the tumor, respectively. Results are represented by mean and the standard deviation (Mean±SD).
In study 2, mice were sacrificed 21 days after treatment initiation and tumors were harvested for T-cell analysis by flow cytometry. Tumor were cut into small pieces and filtered through a 70 micrometer filter. Lymphocytes were isolated using Histopaque 1083 and resuspended in RPMI 1640 supplemented with 10% fetal bovine serum. Lymphocytes were stained with a cell viability dye (Zombie NIR, Biolegend, #423106) and a panel of antibodies including anti-mouse CD45 (Biolegend, #103138), anti-mouse CD3 (Biolegend, #100328), anti-mouse CD4 (Biolegend, #100438), anti-mouse CD8 (Biolegend, #100759). Stained cells were analysed by Attune N×T Flow Cytometer. T-cell results are expressed as % of CD3+ cells among CD45+ cells. CD8+ T-cell results are expressed as % of CD8+ cells among CD45+CD3+ cells. CD4+ T-cell results are expressed as % of CD4+ cells among CD45+CD3+ cells. Results are represented by mean and the standard deviation (Mean±SD) and the individual values.
Statistical analysis: Data was analyzed using 2way ANOVA or ordinary One-way ANOVA with Dunnett's test for multiple comparisons, and P<0.05 was considered to be statistically significant. Both statistical analysis and biological observations are taken into consideration. ***p<0.001, **p<0.01, *p<0.05.

CD137 [5] = biological target: T1, CD137; test: CD137 Promega reporter cell activity assay (NF-κB luciferase in Jurkat cells)

T1 sequence (Q07011 24-255): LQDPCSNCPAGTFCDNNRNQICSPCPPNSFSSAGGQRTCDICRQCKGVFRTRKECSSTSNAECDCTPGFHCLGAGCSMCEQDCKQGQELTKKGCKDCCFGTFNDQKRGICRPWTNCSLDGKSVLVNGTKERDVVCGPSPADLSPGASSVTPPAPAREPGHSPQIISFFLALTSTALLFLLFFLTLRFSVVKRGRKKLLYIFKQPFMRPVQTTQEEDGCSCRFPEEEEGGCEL

CCCC[C@@H]1NC(=O)[C@H](Cc2ccc(O)cc2)NC(=O)[C@@H]2CCCN2C(=O)[C@H](CC(=O)O)NC(=O)[C@H](C)NC(=O)[C@H](Cc2ccccc2)NC(=O)[C@@H]2CSCCC(=O)N3CN(CN(C3)C(=O)CCSC[C@@H](C(=O)N[C@@H](C)C(N)=O)NC1=O)C(=O)CCSC[C@H](NC(=O)[C@H](C)NC(C)=O)C(=O)N[C@@H]([C@@H](C)CC)C(=O)N[C@@H](CCC(=O)O)C(=O)N[C@@H](CCCCNC(=O)CCc1cn(CCOCCOCCOCCOCCOCCOCCOCCOCCOCCOCCOCCOCCOCCOCCOCCOCCOCCOCCOCCOCCOCCOCCOCCNC(=O)CCOCC(COCCC(=O)NCCOCCOCCOCCOCCOCCOCCOCCOCCOCCOCCOCCOCCOCCOCCOCCOCCOCCOCCOCCOCCOCCOCCOCCn3cc(CCC(=O)NCCCC[C@@H]4NC(=O)[C@H](CCC(=O)O)NC(=O)[C@H]([C@@H](C)CC)NC(=O)[C@@H](NC(=O)[C@H](C)NC(C)=O)CSCCC(=O)N5CN6CN(C5)C(=O)CCSC[C@H](NC(=O)[C@H](Cc5ccc(O)cc5)NC(=O)[C@H](CCC(N)=O)NC(=O)CNC4=O)C(=O)N[C@@H](Cc4ccccc4)C(=O)N[C@@H](C)C(=O)N[C@@H](CC(=O)O)C(=O)N4CCC[C@H]4C(=O)N[C@@H](Cc4ccc(O)cc4)C(=O)N[C@@H](CCCC)C(=O)N[C@H](C(=O)N[C@@H](C)C(N)=O)CSCCC6=O)nn3)(COCCC(=O)NCCOCCOCCOCCOCCOCCOCCOCCOCCOCCOCCOCCOCCOCCOCCOCCOCCOCCOCCOCCOCCOCCOCCOCCn3cc(CCC(=O)NCCCC[C@@H]4NC(=O)[C@H](CCC(=O)O)NC(=O)[C@H]([C@@H](C)CC)NC(=O)[C@@H](NC(=O)[C@H](C)NC(C)=O)CSCCC(=O)N5CN6CN(C5)C(=O)CCSC[C@H](NC(=O)[C@H](Cc5ccc(O)cc5)NC(=O)[C@H](CCC(N)=O)NC(=O)CNC4=O)C(=O)N[C@@H](Cc4ccccc4)C(=O)N[C@@H](C)C(=O)N[C@@H](CC(=O)O)C(=O)N4CCC[C@H]4C(=O)N[C@@H](Cc4ccc(O)cc4)C(=O)N[C@@H](CCCC)C(=O)N[C@H](C(=O)N[C@@H](C)C(N)=O)CSCCC6=O)nn3)COCCC(=O)NCCOCCOCCOCCOCCOCCOCCOCCOCCOCCOCCOCCOCCOCCOCCOCCOCCOCCOCCOCCOCCOCCOCCOCCn3cc(CCC(=O)NCCCC[C@@H]4NC(=O)[C@H](CCC(=O)O)NC(=O)[C@H]([C@@H](C)CC)NC(=O)[C@@H](NC(=O)[C@H](C)NC(C)=O)CSCCC(=O)N5CN6CN(C5)C(=O)CCSC[C@H](NC(=O)[C@H](Cc5ccc(O)cc5)NC(=O)[C@H](CCC(N)=O)NC(=O)CNC4=O)C(=O)N[C@@H](Cc4ccccc4)C(=O)N[C@@H](C)C(=O)N[C@@H](CC(=O)O)C(=O)N4CCC[C@H]4C(=O)N[C@@H](Cc4ccc(O)cc4)C(=O)N[C@@H](CCCC)C(=O)N[C@H](C(=O)N[C@@H](C)C(N)=O)CSCCC6=O)nn3)nn1)C(=O)NCC(=O)N[C@@H](CCC(N)=O)C(=O)N[C@@H](Cc1ccc(O)cc1)C(=O)N2 [BCY7838]
systemic elimination (plasma concentration after IV dosing) [1]: retain the property of rapid systemic elimination
cell activity after washout (CD137 [2]): maintain cell activity after washout
pro-inflammatory cytokine (IL-2, IFNγ) secretion by T-cells [3]: secrete pro-inflammatory cytokines
lymphocyte numbers (live CD45 positive cells) ([4]; FIG. 12B): no significant difference between treatments on lymphocyte numbers
tumour cell death (live CD45 negative cells) ([4]; in one melanoma patient sample, but not the other, FIG. 12A): significant tumour cell death
anti-tumor activity (tumor volume), Study 1 (MC38 syngeneic tumors): elicits a range of anti-tumor activities
Average Fold EC50 Improvement relative to CD137L (CD137 [5]; Average EC50 for CD137L = 14.2 nM): 0.73
Average Relative Fold Induction relative to CD137L (CD137 [5]; Average fold induction for CD137L = 4.0): 2.19
